In patent publication US9770407B2 (Lundbeck Pharmaceuticals LLC, priority 2005, dated 2017):

Legend:
[1] = Steady-state trough concentrations, oral observed vs IV predicted by the method of superposition; assay type: in vivo, human
Experimental: The most relevant factor in considering the dose adjustment for intravenously administered CBZ is for treatment centers to maintain plasma concentrations of CBZ above the therapeutic threshold. Following administration of 100 mg of IV CBZ, observed plasma concentrations followed a […] decay indicating a very fast distribution to tissues followed by a slower elimination of drug out of the body. Steady-state plasma concentrations of IV CBZ were predicted using the method of superposition. Plasma concentrations following a single dose of IV CBZ were scaled-up to steady-state conditions, assuming linear pharmacokinetics, using an accumulation ratio, a mean F of 0.7, and correcting for dose (see Equations 1 and 2). As a result, this calculation allows for a comparison of steady-state trough plasma concentrations following oral (Co and IV (C6 hr) administration of CBZ respectively assuming a dosing interval of once every six hours for the IV formulation.
[formula] Where Cpss(IV) is the plasma concentration (C) at steady state for IV administration; CpsD is the plasma concentration after a single dose; Int is the y-intercept resulting from linear regression of the elimination phase; λ is the terminal elimination rate constant; Dpo is the total oral daily dose; DIV is the single IV dose; F is the absolute bioavailability; T is the dosing interval; and t is the time of each observed concentration.

[2] = Estimated dissociation of CBZ from the inclusion complex on dilution in blood; settings: based on simulations of dilution effects; assumes no interaction from endogenous agents
Source text: These relatively weak associations are within the range (100-20,000 M^−1) of those commonly seen with drug: cyclodextrin complexes (Crit. Rev. Ther. Drug Carrier Systems, 14 (1): 1-104, 1997).
The minimal volume of distribution of a drug administered intravenously is based on the plasma volume, which is approximately 5% of the body weight. Therefore, in a 70 kg subject, the plasma volume is approximately 3.5 L. Alternatively, one could assume that the volume of distribution is extracellular water, accounting for approximately 30% of the total body weight, in which case the volume of distribution is about 21 L.
If a 20 mL dose were administered, the dilution ranges from 175-1,050-fold.
Based on the simulations of dilution effects, it appears that 70-95% of the CBZ will immediately dissociate from the inclusion complex in the blood if one assumes no interaction from endogenous agents.

[3] = Subset analysis of subjects on extended release CBZ twice daily: predicted IV vs observed oral steady-state Cmax, Cmin, AUC; assay type: in vivo, human; settings: N=47; for AUC: human, plasma
Experimental: A subset analysis of the subject data (n=47), including only those subjects taking extended release (ER) formulations of CBZ twice daily (as indicated by the product label), was performed to compare predicted maximum and minimum exposures of CBZ at steady-state administered via IV infusion to those observed following oral administration. CBZ concentration-time profiles following IV administration will differ from oral administration to the greatest extent for subjects on ER products, since these products provide formulation dependent control of the concentration-time profile. Subjects on extended release formulations experience the least fluctuation in concentrations and will maintain higher relative trough concentrations compared to any non-extended release product. Thus, the analysis in this subset gives a conservative assessment of potential differences in peak and trough exposures following IV administration. This analysis included calculations of predicted Cmax, Cmin, and AUCss values of CBZ for subjects predicted to be at steady-state on IV therapy.

clinical = settings: human, in vivo
Experimental: (§1) Indwelling catheters were placed into the arms of test subjects. A single 100 mg dose of stable-labeled (non-radioactive) CBZ (SL-CBZ) was then infused over 10 minutes. At the end of the infusion, the subject's usual morning dose of oral CBZ, less 100 mg, was administered. Blood pressure, heart rate and rhythm, and infusion site discomfort were monitored during and for an hour after the infusion. […] Unbound CBZ was measured following ultrafiltration. CBZ concentration-time data were analyzed using a non-compartmental approach with the pharmacokinetic software, WinNONLIN.
(§2) A validated LC-MS assay for SL-CBZ, CBZ and their respective epoxide metabolites was used. […] CBZ was assayed similar to that described by Osterloh and Bertilsson. […] After shaking and centrifugation, the organic layer was removed and evaporated under nitrogen gas to dryness. Each sample was then redissolved with the addition of 25 microliters of ethyl acetate. Plasma samples were measured for unbound and total CBZ, CBZ glucuronide and CBZ-E by LCMS. Unbound drug was separated from the bound fraction by ultrafiltration. The mobile phase consists of 50% 0.05 M ammonium acetate buffer, pH 4.7, 50% MeOH at a flow rate of 0.4 ml/min, on a reverse phase C-18 column.

[4] = human, in vivo, po
Experimental: as §1, §2

[5] = 5th Percentile, observed, ER products twice daily
[6] = 5th Percentile, predicted, IV every 6 hours
[7] = 95th Percentile, observed, ER products twice daily
[8] = 95th Percentile, predicted, IV every 6 hours
[9] = Maximum, observed, ER products twice daily
[10] = Maximum, predicted, IV every 6 hours
[11] = Median, observed, ER products twice daily
[12] = Median, predicted, IV every 6 hours
[13] = Minimum, observed, ER products twice daily
[14] = Minimum, predicted, IV every 6 hours

Structure (SMILES): NC(=O)N1c2ccccc2C=Cc2ccccc21 [Carbamazepine, 5H-dibenz[b,f]azepine-5-carboxamide]
- statistical comparison of trough values following oral and IV administration ([1]; 6-hour time-point, α=0.10, p=0.1931): not statistically different
- statistical comparison of trough values following oral and IV administration ([1]; 12-hour time-point, post-dose): significantly different
- Difference Between the Means ([1]; Co (oral only) vs C6 hr (IV only), N=62): 0.09456
- concentration at 6 h ([1]; human, plasma, 100 mg, predicted by superposition, IV every six hours, mean F=0.70, N=62, read-out: C6 hr (IV only), mean steady-state plasma concentration at the 6-hour time-point): 8040 ng/mL
- Co (oral only), mean oral steady-state trough plasma concentration ([1]; observed, oral twice daily dosing, n=62 evaluable subjects): 8.98 µg/mL
- CBZ that will immediately dissociate from the inclusion complex in the blood [2]: 70-95%
- Oral Cmaxss [3, 5]: 4980 ng/mL
- Oral Cminss [3, 5]: 4320 ng/mL
- IV CmaxSS (mean F = 0.7) [3, 6]: 4800 ng/mL
- IV CminSS (mean F = 0.7) [3, 6]: 2480 ng/mL
- Oral Cmaxss [3, 7]: 14600 ng/mL
- Oral Cminss [3, 7]: 14550 ng/mL
- IV CmaxSS (mean F = 0.7) [3, 8]: 24140 ng/mL
- IV CminSS (mean F = 0.7) [3, 8]: 18640 ng/mL
- Oral Cmaxss [3, 9]: 17100 ng/mL
- Oral Cminss [3, 9]: 16690 ng/mL
- IV CmaxSS (mean F = 0.7) [3, 10]: 47000 ng/mL
- IV CminSS (mean F = 0.7) [3, 10]: 41040 ng/mL
- IV CmaxSS (mean F = 0.7) ([3]; Maximum, predicted, IV every 6 hours, listed as CBZ): 47000 ng/mL
- Oral Cmaxss ([3]; Mean ± SD, observed, ER products (Carbatrol, Tegretol XR) twice daily, highest observed concentration, sparse sampling): 9920 ± 2990 ng/mL
- Oral Cminss ([3]; Mean ± SD, observed, ER products twice daily): 9320 ± 2930 ng/mL
- IV CminSS (mean F = 0.7) ([3]; Mean ± SD, predicted, IV every 6 hours): 8630 ± 6850 ng/mL
- IV CmaxSS (mean F = 0.7) ([3]; Mean ± SD, predicted, scaled from 100 mg single IV dose over 10 minutes, every 6 hours): 11750 ± 7900 ng/mL
- IV CmaxSS (mean F = 0.7) ([3]; Mean ± SD, predicted, scaled from 100 mg single IV dose over 10 minutes, every 6 hours, listed as CBZ): 11750 ng/mL
- Oral Cmaxss [3, 11]: 9810 ng/mL
- Oral Cminss [3, 11]: 9440 ng/mL
- IV CmaxSS (mean F = 0.7) [3, 12]: 9930 ng/mL
- IV CminSS (mean F = 0.7) [3, 12]: 6500 ng/mL
- Oral Cmaxss [3, 13]: 2890 ng/mL
- Oral Cminss [3, 13]: 2890 ng/mL
- IV CmaxSS (mean F = 0.7) [3, 14]: 3170 ng/mL
- IV CminSS (mean F = 0.7) [3, 14]: 1650 ng/mL
- AUC ([3]; iv, 5th Percentile, predicted, IV every 6 hours, read-out: IV AUCSS (mean F = 0.7)): 43100 ng·h/mL
- AUC ([3]; iv, 95th Percentile, predicted, IV every 6 hours, read-out: IV AUCSS (mean F = 0.7)): 257000 ng·h/mL
- AUC ([3]; iv, Maximum, predicted, IV every 6 hours, read-out: IV AUCSS (mean F = 0.7)): 551000 ng·h/mL
- AUC ([3]; iv, Mean ± SD, predicted, IV every 6 hours, read-out: IV AUCSS (mean F = 0.7)): 122000 ± 90900 ng·h/mL
- AUC ([3]; iv, Median, predicted, IV every 6 hours, read-out: IV AUCSS (mean F = 0.7)): 93700 ng·h/mL
- AUC ([3]; iv, Minimum, predicted, IV every 6 hours, read-out: IV AUCSS (mean F = 0.7)): 26900 ng·h/mL
- AUC ([3]; po, 5th Percentile, observed, ER products, 12 hour dosing interval, read-out: Oral AUCss): 50100 ng·h/mL
- AUC ([3]; po, 95th Percentile, observed, ER products, 12 hour dosing interval, read-out: Oral AUCss): 146000 ng·h/mL
- AUC ([3]; po, Maximum, observed, ER products, 12 hour dosing interval, read-out: Oral AUCss): 168000 ng·h/mL
- AUC ([3]; po, Mean ± SD, observed, ER products, 12 hour dosing interval, read-out: Oral AUCss): 96800 ± 28100 ng·h/mL
- AUC ([3]; po, Median, observed, ER products, 12 hour dosing interval, read-out: Oral AUCss): 96000 ng·h/mL
- AUC ([3]; po, Minimum, observed, ER products, 12 hour dosing interval, read-out: Oral AUCss): 28500 ng·h/mL
- AUC (clinical; iv, 100 mg, AUC 0-° o): 36500 ng·h/mL
- clearance (clinical; iv, CL): 0.6 mL/min/kg
- AUC (clinical; po, AUCss (po)): 87200 ng·h/mL
- bioavailability (clinical; po, absolute bioavailability of oral CBZ during maintenance therapy centers around): 70 to 75%
- bioavailability (clinical; po, average oral bioavailability): 65 to 75%
- calculated mean F value [4]: 75%
- median F value [4]: 67%
